Experiments:
[1] = target: T1, ATAD2B (Homo sapiens, UniProt Q9ULI0); assay: Epigenetics selectivity panel (BPS Bioscience); assay type: binding
T1 construct: purchased DiscoverX KINOMEscan (kinases); BPS Bioscience (epigenetic targets)

[2] = target: T2, PRMT3 (Homo sapiens, UniProt O60678); assay: Epigenetics selectivity panel (BPS Bioscience); assay type: biochemical
T2 construct: purchased DiscoverX KINOMEscan (kinases); BPS Bioscience (epigenetic targets)

[3] = test system: COLO-205; assay: Cell proliferation assay (MTS); assay type: cell-based; settings: Homo sapiens, Colorectal
[4] = Plasma protein binding (equilibrium dialysis); assay type: in vitro ADME; settings: pH 7.4
Procedure: This study was conducted by Equilibrium Dialysis at Wuxi (http://www.wuxi.com/). HT-Dialysis plate (Model HTD 96 b, Cat# 1006) and the dialysis membrane (molecular weight cut off 12-14 kDa, Cat# 1101) were purchased from HT Dialysis LLC (Gales Ferry, CT). Human plasma and CD-1 mouse plasma from Bioreclamation were thawed prior to experiment and the pH was adjusted at 7.4. Concentrations of test compounds in starting solution (before dialysis), plasma side of the membrane and buffer side of the membrane were quantified by LC-MS/MS (Shimadzu LC 20-AD - API 4000) methodologies, using peak area ratio of analyte/internal standard. The fraction of unbound, bound and recovery were calculated.
Results are the average of three replicates. […]
The pH was adjusted to 7.40±0.05 using either 1 M sodium hydroxide or 1 M hydrochloric acid. Test compounds were diluted to 0.2 mM in DMSO and further diluted prior to testing to 10 µM in PBS, pH 7.4 (final 5% DMSO). The assay was performed using a 96-well multiscreen-IP PAMPA plate (Millipore, Cat. # MAIPN4510), whose PVDF membrane was pre-coated with 5 µL of 1% lecithin/dodecane mixture. 150 µL of PBS solution containing the test compounds were added to the donor chamber. Blank PBS (300 µL) was also added to the PTFE acceptor plate, and the donor and acceptor plates were assembled and incubated for 4 h at room temperature with shaking at 150 rpm. […]

[5] = test system: RPMI 8226; assay: Cell proliferation assay (MTS); assay type: cell-based; settings: Homo sapiens, MM
[6] = target: T3, cytochrome P450 2C19 (Homo sapiens, UniProt P33261); assay type: in vitro ADME; settings: microsomes, 10 min, 10 µM
T3 construct: tissue BD Gentest; host or cells: human liver microsomes
T3 sequence (P33261 whole entry): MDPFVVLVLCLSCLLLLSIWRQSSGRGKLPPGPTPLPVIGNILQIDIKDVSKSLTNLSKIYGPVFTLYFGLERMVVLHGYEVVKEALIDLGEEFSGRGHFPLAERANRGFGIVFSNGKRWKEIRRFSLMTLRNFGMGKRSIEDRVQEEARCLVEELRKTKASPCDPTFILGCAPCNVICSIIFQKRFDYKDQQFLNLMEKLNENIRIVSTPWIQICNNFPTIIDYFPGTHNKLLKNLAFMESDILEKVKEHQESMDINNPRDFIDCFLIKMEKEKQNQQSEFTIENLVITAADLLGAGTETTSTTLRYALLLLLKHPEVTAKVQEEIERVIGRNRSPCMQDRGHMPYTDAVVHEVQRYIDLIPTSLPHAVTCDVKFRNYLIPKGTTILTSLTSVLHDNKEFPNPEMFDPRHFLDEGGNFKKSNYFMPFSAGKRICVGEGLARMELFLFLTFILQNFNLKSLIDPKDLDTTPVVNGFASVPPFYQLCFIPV
Procedure: (§1) Details are provided in Supplementary Information. […]
(§2) 3A4) was evaluated in human liver microsomes at Wuxi (http://www.wuxi.com/). Test compounds (10 µM) and the corresponding substrates for each P450 isoform (20 µL) were incubated with 140 µL liver […]
(§3) reaction was terminated by adding 400 µL cold stop solution (200 ng/mL tolbutamide in ACN) and samples were centrifuged at 4000 rpm for 20 minutes. Supernatants were analyzed by LC-MS/MS (Shimadzu LC 20-AD - API 4000), using peak area ratio of analyte/internal standard. Test compounds and positive controls were tested in duplicates. The percentage of inhibition was calculated as the ratio of substrate metabolite detected in treated and non-treated wells. […]

[7] = target: T4, cytochrome P450 3A4 (Homo sapiens, UniProt P08684); assay type: in vitro ADME; settings: microsomes, 10 min, 10 µM
T4 construct: tissue BD Gentest; host or cells: human liver microsomes
T4 sequence (P08684 whole entry): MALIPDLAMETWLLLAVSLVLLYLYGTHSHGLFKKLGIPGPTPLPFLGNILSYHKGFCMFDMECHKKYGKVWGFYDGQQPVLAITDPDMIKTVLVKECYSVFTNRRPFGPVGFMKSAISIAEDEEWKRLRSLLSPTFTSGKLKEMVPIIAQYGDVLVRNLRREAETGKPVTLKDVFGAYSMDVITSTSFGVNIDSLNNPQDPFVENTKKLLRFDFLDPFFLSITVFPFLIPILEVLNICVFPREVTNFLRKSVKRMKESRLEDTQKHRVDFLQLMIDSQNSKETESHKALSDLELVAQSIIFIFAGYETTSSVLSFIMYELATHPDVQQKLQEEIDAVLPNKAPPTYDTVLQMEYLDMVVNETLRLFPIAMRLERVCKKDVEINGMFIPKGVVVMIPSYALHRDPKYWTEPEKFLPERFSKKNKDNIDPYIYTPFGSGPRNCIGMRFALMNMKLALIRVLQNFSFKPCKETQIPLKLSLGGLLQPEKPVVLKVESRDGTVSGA
Procedure: as §1, §2, §3

[8] = target: T5, cytochrome P450 2C9 (Homo sapiens, UniProt P11712); assay type: in vitro ADME; settings: microsomes, 10 min, 10 µM
T5 construct: tissue BD Gentest; host or cells: human liver microsomes
T5 sequence (P11712 whole entry): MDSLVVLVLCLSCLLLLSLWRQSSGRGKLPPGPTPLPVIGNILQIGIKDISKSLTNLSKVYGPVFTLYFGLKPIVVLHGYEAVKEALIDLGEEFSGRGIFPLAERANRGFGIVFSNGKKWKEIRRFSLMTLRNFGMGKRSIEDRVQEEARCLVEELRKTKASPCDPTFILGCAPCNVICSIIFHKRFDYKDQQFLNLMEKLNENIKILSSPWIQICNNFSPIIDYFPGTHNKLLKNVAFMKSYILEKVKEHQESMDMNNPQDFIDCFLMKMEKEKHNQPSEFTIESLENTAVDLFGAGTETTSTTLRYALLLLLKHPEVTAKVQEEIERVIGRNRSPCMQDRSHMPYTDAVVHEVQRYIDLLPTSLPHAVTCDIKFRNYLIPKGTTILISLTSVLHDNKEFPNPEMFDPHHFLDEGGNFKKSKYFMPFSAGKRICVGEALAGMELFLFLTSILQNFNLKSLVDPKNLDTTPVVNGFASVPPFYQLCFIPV
Procedure: as §1, §2, §3

[9] = target: T6, cytochrome P450 2D6 (Homo sapiens, UniProt P10635); assay type: in vitro ADME; settings: microsomes, 10 min, 10 µM
T6 construct: tissue BD Gentest; host or cells: human liver microsomes
T6 sequence (P10635 whole entry): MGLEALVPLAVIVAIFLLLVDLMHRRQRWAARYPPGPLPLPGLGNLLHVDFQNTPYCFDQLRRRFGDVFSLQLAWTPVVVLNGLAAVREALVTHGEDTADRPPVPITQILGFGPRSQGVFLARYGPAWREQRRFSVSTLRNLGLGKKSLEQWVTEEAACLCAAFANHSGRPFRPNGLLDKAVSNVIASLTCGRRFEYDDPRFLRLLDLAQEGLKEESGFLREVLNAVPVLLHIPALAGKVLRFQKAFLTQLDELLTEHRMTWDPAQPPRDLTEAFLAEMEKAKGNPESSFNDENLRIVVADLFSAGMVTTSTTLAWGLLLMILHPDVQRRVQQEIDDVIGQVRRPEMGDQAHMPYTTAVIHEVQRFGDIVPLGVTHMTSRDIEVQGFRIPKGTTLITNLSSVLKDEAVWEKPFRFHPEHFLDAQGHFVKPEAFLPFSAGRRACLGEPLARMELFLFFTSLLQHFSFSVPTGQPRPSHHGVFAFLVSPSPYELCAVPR
Procedure: as §1, §2, §3

[10] = test system: MV4-11; assay: Cell proliferation assay (MTS); assay type: cell-based; settings: Homo sapiens, MV4-11; AML, 48 h; read-out: GI50
[11] = target: T7, DNMT3B (Homo sapiens, UniProt Q9UBC3); assay: Epigenetics selectivity panel (BPS Bioscience); assay type: biochemical
T7 construct: purchased BPS Bioscience (contract panel)

[12] = test system: A549; assay: Cell proliferation assay (MTS); assay type: cell-based; settings: Homo sapiens, NSCLC
[13] = Liver microsomal stability; assay type: in vitro ADME; settings: mouse, mouse liver microsomes; read-out: Liver Microsomal Stability. Estimation T1/2
[14] = test system: KG-1; assay: Cell proliferation assay (MTS); assay type: cell-based; settings: Homo sapiens, AML, 48 h
[15] = test system: A498; assay: Cell proliferation assay (MTS); assay type: cell-based; settings: Homo sapiens, Renal
[16] = target: T8, EZH1 (Homo sapiens, UniProt Q92800); assay: Epigenetics selectivity panel (BPS Bioscience); assay type: biochemical
T8 construct: purchased DiscoverX KINOMEscan (kinases); BPS Bioscience (epigenetic targets)

[17] = test system: MGH-U3; assay: Cell proliferation assay (MTS); assay type: cell-based; settings: Homo sapiens; Bladder
[18] = target: T9, BRDT(BD1) (Homo sapiens, UniProt Q58F21); assay: Epigenetics selectivity panel (BPS Bioscience); assay type: binding
T9 construct: purchased DiscoverX KINOMEscan (kinases); BPS Bioscience (epigenetic targets)

[19] = test system: H23; assay: Cell proliferation assay (MTS); assay type: cell-based; settings: Homo sapiens, NCI-H23; NSCLC
[20] = target: T10, PRMT8 (Homo sapiens, UniProt Q9NR22); assay: Epigenetics selectivity panel (BPS Bioscience); assay type: biochemical
T10 construct: purchased DiscoverX KINOMEscan (kinases); BPS Bioscience (epigenetic targets)
T10 sequence (Q9NR22 whole entry): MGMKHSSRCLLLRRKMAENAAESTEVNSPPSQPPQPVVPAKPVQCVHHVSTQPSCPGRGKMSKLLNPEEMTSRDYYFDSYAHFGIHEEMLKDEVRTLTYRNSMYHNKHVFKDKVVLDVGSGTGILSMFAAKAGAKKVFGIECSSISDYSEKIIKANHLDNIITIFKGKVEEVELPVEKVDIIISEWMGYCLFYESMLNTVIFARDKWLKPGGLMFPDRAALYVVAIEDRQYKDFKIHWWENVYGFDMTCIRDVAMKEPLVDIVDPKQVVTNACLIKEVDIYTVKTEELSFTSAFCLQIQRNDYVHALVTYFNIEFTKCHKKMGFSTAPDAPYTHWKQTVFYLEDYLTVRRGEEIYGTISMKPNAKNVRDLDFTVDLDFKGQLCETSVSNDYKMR

[21] = target: T11, JMJD2B (Homo sapiens, UniProt O94953); assay: Epigenetics selectivity panel (BPS Bioscience); assay type: biochemical
T11 construct: purchased DiscoverX KINOMEscan (kinases); BPS Bioscience (epigenetic targets)

[22] = in vivo; set-up: species or system mice; settings: mouse, iv
[23] = test system: SK-MEL-147; assay: Cell proliferation assay (MTS); assay type: cell-based; settings: Homo sapiens, Melanoma
[24] = target: T12, Human HDAC6 (Homo sapiens, UniProt Q9UBN7); assay: HDAC6 enzyme activity assay; assay type: biochemical
T12 construct: purchased DiscoverX KINOMEscan (kinases); BPS Bioscience (epigenetic targets)

[25] = target: T13, LSD1 (Homo sapiens, UniProt O60341); assay: Epigenetics selectivity panel (BPS Bioscience); assay type: biochemical
T13 construct: purchased DiscoverX KINOMEscan (kinases); BPS Bioscience (epigenetic targets)

[26] = test system: HCC95; assay: Cell proliferation assay (MTS); assay type: cell-based; settings: Homo sapiens, SCLC
[27] = test system: MGH-U4; assay: Cell proliferation assay (MTS); assay type: cell-based; settings: Homo sapiens; Bladder
[28] = target: T14, PRMT1 (Homo sapiens, UniProt Q99873); assay: Epigenetics selectivity panel (BPS Bioscience); assay type: biochemical
T14 construct: purchased BPS Bioscience (contract panel)
T14 sequence (Q99873 whole entry): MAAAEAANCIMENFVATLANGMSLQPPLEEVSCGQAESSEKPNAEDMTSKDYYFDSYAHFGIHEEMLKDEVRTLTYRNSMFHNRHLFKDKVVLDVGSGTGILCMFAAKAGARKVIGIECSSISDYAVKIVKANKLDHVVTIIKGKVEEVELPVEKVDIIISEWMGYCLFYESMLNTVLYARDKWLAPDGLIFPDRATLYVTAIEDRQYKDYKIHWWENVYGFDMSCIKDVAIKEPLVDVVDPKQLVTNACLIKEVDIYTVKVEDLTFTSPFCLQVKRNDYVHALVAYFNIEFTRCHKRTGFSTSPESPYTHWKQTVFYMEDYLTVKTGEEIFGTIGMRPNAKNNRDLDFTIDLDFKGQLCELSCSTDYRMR

[29] = target: T15, PRMT5 (Homo sapiens, UniProt O14744); assay: Epigenetics selectivity panel (BPS Bioscience); assay type: biochemical
T15 construct: purchased DiscoverX KINOMEscan (kinases); BPS Bioscience (epigenetic targets)

[30] = test system: HCT-116; assay: Cell proliferation assay (MTS); assay type: cell-based; settings: Homo sapiens, Colorectal

T2 sequence (O60678 whole entry): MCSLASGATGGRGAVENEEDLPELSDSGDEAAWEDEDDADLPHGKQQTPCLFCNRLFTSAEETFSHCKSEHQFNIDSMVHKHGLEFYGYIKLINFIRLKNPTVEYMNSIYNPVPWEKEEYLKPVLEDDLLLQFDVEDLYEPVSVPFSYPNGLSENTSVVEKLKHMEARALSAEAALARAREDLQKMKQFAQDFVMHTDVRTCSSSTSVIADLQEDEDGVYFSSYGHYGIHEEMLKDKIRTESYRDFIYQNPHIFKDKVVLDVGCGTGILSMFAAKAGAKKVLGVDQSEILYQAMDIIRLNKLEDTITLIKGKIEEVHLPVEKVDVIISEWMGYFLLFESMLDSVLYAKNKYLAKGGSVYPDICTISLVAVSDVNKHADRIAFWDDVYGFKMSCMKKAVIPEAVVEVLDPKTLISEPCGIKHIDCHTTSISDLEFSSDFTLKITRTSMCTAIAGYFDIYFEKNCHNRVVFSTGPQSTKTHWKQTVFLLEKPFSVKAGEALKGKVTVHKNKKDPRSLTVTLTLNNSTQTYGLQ
T1 sequence (Q9ULI0 whole entry): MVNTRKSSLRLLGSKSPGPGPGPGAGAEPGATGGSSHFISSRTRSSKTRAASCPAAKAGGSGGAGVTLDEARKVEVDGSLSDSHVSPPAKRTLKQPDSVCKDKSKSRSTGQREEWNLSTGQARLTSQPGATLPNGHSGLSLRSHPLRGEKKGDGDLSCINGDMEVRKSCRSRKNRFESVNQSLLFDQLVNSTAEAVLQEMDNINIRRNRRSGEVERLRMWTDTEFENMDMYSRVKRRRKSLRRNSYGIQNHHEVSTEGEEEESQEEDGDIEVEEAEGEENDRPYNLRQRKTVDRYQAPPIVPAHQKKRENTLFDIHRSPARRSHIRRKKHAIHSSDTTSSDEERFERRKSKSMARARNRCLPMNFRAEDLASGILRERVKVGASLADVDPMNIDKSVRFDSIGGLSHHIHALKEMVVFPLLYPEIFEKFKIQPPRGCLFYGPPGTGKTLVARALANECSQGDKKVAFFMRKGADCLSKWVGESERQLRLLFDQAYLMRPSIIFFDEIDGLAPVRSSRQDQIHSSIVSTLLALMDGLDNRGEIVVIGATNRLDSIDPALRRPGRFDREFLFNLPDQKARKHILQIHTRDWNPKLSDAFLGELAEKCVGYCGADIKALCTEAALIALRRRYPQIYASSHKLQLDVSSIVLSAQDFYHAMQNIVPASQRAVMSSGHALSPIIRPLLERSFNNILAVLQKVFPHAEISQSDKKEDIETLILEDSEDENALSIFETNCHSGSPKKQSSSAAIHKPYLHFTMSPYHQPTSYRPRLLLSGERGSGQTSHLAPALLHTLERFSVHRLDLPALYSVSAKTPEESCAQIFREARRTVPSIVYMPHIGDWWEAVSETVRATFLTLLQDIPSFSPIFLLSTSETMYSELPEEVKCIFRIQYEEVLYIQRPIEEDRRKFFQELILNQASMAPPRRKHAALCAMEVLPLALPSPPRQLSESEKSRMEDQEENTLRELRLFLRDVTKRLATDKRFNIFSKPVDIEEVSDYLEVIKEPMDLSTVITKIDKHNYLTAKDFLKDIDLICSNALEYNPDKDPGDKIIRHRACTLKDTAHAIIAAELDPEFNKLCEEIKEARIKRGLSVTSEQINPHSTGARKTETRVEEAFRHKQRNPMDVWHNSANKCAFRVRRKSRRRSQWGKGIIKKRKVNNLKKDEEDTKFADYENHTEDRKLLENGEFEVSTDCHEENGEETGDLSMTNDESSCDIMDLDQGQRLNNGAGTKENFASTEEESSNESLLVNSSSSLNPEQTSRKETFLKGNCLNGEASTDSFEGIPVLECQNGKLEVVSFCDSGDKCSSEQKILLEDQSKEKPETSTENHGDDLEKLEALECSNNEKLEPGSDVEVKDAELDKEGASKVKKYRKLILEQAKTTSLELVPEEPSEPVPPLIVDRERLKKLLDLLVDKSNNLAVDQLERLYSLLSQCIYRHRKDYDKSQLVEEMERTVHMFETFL

Molecule `COc1cc2c(NC3CCN(C)CC3)cc(-c3ccc(C)o3)nc2cc1OCCCN1CCCC1` [CM-272, 6-methoxy-2-(5-methyl-2-furyl)-N-(1-methyl-4-piperidyl)-7-(3-pyrrolidin-1-ylpropoxy)quinolin-4-amine] has an inhibition at 10 µM [1] of 0%, an inhibition at 10 µM [2] of 7% and a GI50 [3] of 679 nM. It also gave a fraction unbound ([4]; CD-1, mouse) of 0.25, a fraction unbound ([4]; human) of 0.244 and a GI50 [5] of 2000 nM. For the same molecule, the “P450s Inhibition: 2C19” value [6] was < 10%, the “P450s Inhibition: 3A4” value [7] was < 10% and the “P450s Inhibition: 2C9” value [8] was < 10%. For the same molecule, the “P450s Inhibition: 2D6” value [9] was < 10%, the GI50 [10] was 269 nM and the IC50 [11] was 1200 nM. For the same molecule, the GI50 [12] was 937 nM, the half-life at 1 µM [13] was 0.587 h and the GI50 [14] was 3540 nM. For the same molecule, the GI50 [15] was 4760 nM, the inhibition at 10 µM [16] was 6% and the GI50 [17] was 456 nM. For the same molecule, the inhibition at 10 µM [18] was 8%, the GI50 [19] was 2490 nM and the inhibition at 10 µM [20] was 11%. The inhibition at 10 µM [21] was 2%, the clearance ([22]; […]) was 15.2 mL/min/kg and the half-life ([22]; […]) was 24.2 h. It also gave a GI50 [23] of 422 nM, an inhibition at 10 µM [24] of 0% and an inhibition at 10 µM [25] of 0%. The GI50 [26] was 751 nM, the GI50 [27] was 725 nM and the inhibition at 10 µM [28] was 73%. For the same molecule, the IC50 ([28]; BPS) was 4000 nM, the inhibition at 10 µM [29] was 6% and the GI50 [30] was 602 nM.

In the case of `COc1cc2c(NCC3CCN(C)CC3)cc(-c3ccc(C)o3)nc2cc1OCCCN1CCCC1` [CM-579, 6-methoxy-2-(5-methyl-2-furyl)-N-[(1-methyl-4-piperidyl)methyl]-7-(3-pyrrolidin-1-ylpropoxy)quinolin-4-amine], the inhibition at 10 µM [1] is reported as 0%, the inhibition at 10 µM [2] is reported as 5% and the GI50 [3] is reported as 275 nM. For the same molecule, the fraction unbound ([4]; CD-1, mouse) was 0.046, the fraction unbound ([4]; human) was 0.147 and the GI50 [5] was 5420 nM. For the same molecule, the “P450s Inhibition: 2C19” value [6] was < 10%, the “P450s Inhibition: 3A4” value [7] was < 10% and the “P450s Inhibition: 2C9” value [8] was < 10%. For the same molecule, the “P450s Inhibition: 2D6” value [9] was < 10%, the GI50 [10] was 385 nM and the IC50 [11] was 1000 nM. For the same molecule, the GI50 [12] was 122 nM, the half-life at 1 µM [13] was 0.178 h and the GI50 [14] was > 10000 nM. It also gave a GI50 [15] of 441 nM, an inhibition at 10 µM [16] of 17% and a GI50 [17] of 141 nM. For the same molecule, the inhibition at 10 µM [18] was 0%, the GI50 [19] was 1140 nM and the inhibition at 10 µM [20] was 12%. It also gave an inhibition at 10 µM [21] of 40%, an AUC(0-t) ([22]; 1 mg/kg) of 0.268 µM·h and a Cmax ([22]; 1 mg/kg) of 191 nM. For the same molecule, the clearance ([22]; 1 mg/kg) was 95 mL/min/kg, the half-life ([22]; 1 mg/kg) was 6.26 h and the GI50 [23] was 32 nM. The inhibition at 10 µM [24] was 0%, the inhibition at 10 µM [25] was 24% and the GI50 [26] was 613 nM. It also gave a GI50 [27] of 173 nM, an inhibition at 10 µM [28] of 43% and an inhibition at 10 µM [29] of 0%. For the same molecule, the GI50 [30] was 176 nM.

Source: article PMC5458547, “Discovery of first-in-class reversible dual small molecule inhibitors against G9a and DNMTs in hematological malignancies” (Nature Communications, 2017)
